Reference: PMC9313812, “The Pseudo‐Natural Product Rhonin Targets RHOGDI” (Angewandte Chemie (International Ed. in English), 2022)
pIC50: −log10 of the molar value. ≈ marks a conversion by molar mass, not a printed value.

Columns and labels:
Shh-LIGHT2 cells = experiment: GLI-dependent reporter gene assay (RGA); type: cell-based; conditions: for Inhibition of GLI-dependent reporter gene expression (in words): Shh-LIGHT2 cells
Experimental: using a three-fold dilution series starting from a concentration of 30 μM. Half-maximal inhibitory concentrations (IC50) were calculated using the Quattro software suite (Quattro Research, Planegg, Germany) or GraphPad Prism 7 (GraphPad, USA). […]
GLI-dependent reporter gene assay
Shh-LIGHT2 cells were seeded (2.5×10^4 per well) in 96-well plates. After incubation for 16 h, medium was replaced by low serum-containing medium (0.5% FCS) supplemented with 1.5 μM purmorphamine and various concentrations of the compounds or DMSO as a control and cells were incubated for 48 h. […]

[1] = test system: Ptch1 and Gli1 expression in C3H/10T1/2 cells; experiment: RT-qPCR of Hh target genes; type: cell-based, mouse; conditions: 1.5 μM purmorphamine, 96 h
Experimental: three times with PBS and mounted on glass slides using Aqua Polymount (Polysciences Inc).
Images were acquired as Z-sections with Leica SP5 confocal microscope using a 63x 1.40 NA
Oil objective (Leica Microsystems CMS GmbH, Mannheim, Germany). Image analysis was
performed using the software ImageJ. Briefly, Z-stacks were converted to intensity sum
projections, after previous background subtraction. For quantification, cilia were identified and
marked based on the acetylated-tubulin staining intensities and the intensities of the anti-
Smoothened antibody were measured within these areas. Results were visualized and
significances were assessed using an unpaired t-test (confidence interval of 95%) with the
software GraphPad Prism 7, GraphPad software, USA). Three independent biological
replicates were performed and for each replicate at least 100 cilia per condition were analyzed.
Reverse transcription- quantitative PCR (RT-qPCR)
C3H10T1/2 cells were seeded (1×10^5 per well) in 6-well plates. 48 h later cells were treated […]
DNase I digestion step. The concentration of purified RNA was determined by means of the […]
QuantiTect Reverse Transcription Kit (Qiagen) according to the manufacturer’s protocol. […]
determined by means of quantitative RT-PCR using the QuantiFast SYBR Green PCR Kit […]
genes. The expression levels of Ptch1 and Gli1 were determined using the 2−ΔΔCt method.[6] […]

[2] = Kinetic solubility determination; type: physicochemical; conditions: for solubility kinetic: aqueous buffer, pH 7.4, aqueous buffer, kinetic from dmso stock, Table S9
Experimental: (§1) (1 picture or pasted object on this page, not shown here)
Each sample was tested in triplicate.

RHOGDI1-RAC1 interaction = molecular target: T1, RHOGDI1-RAC1 interaction (Homo sapiens, UniProt P52565); experiment: Surface plasmon resonance: RHOGDI1-mediated displacement of GerGer-RAC1-GDP from immobilized liposomes; type: biochemical; conditions: for Effect on kinetics of geranylgeranylated RAC1 extraction by RHOGDI1 (in words): SPR
T1 construct: GST; made in house; host or cells: RHOGDI1: E. coli; GerGer-RAC1: insect cells (TNAO38)
T1 sequence (P52565 1-204): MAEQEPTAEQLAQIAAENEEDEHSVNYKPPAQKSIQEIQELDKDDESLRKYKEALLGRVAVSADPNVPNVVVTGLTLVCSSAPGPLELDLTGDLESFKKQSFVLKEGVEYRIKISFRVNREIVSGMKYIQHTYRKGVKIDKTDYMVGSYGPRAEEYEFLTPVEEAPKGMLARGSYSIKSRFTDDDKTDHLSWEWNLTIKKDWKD
Experimental: RHOGDI1 displaced liposome -bound RAC1 from the surface of L1 chip with a koff of 0.016 […]
bound RAC1. Calculated rate constants by mono-exponential fitting of RU decays were 0.02 and 0.032 s-1 for RHOGDI1-mediated RAC1 displacement from the liposomes in the presence of 7a and 7d, respectively. (d) Competition-based fluorescence polarization experiments were performed by titration of 7a against 10 nM fluorescein-labelled atorvastatin and GST-PDEδ.
(e) Fluorescence polarization experiment using 10 nM probe 10 and titration of PDEδ.
as §1
Surface plasmon resonance (SPR)
Biacore® X100 instrument (Biacore, now GE Healthcare) was used to analyze the effect of 7a on the GerGer-RAC1-GDP and RHOGDI1 interaction. Liposomes suspended in SPR buffer (20 mM HEPES, pH 7.4, 50 mM NaCl, 5 mM MgCl2, 3 mM DTT) were immobilized by injecting 0.5 mM liposomes with flowrate of 5 µL/min on the surface of a Pioneer® L1 sensor chip (GE Healthcare) for the period of 900 s, as indicated by a constant signal. Unbound liposomes were removed by passing the buffer and 10 mM NaOH with flowrate of 5 µL/min for 30 s over the sensor chip. Buffer containing 15 µM GerGer-RAC1-GDP was passed with flowrate of 5 µL/min over the immobilized liposomes to facilitate the loading of GerGer-RAC1-GDP on to the liposomes. The effect of compounds on the association of GerGer-RAC1-GDP with liposomes and the resulting dissociation of GerGer-RAC1 upon passing 25 µM of RHOGDI1 was monitored by the change in the response unit signal.
Protein expression and purification
RHOGDI1 delta15, RHOGDI1 delta25, RHOGDI1-3 were produced in E. coli (XL1-Blue) as a GST recombinant protein as described previously.[9] In summary, protein were expressed in E.coli BL21 upon addition of IPTG overnight. Cell were collected and lysed in a lysis buffer, containing 30 mM Tris-NaOH pH 7.4, 150 mM NaCl, 1 mM DTT, and 5 mM MgCl2. Cells were further lysed using sonication. […]

COC(=O)C1(C(CC(=O)c2cccnc2)c2ccccc2)N=C(c2ccc(Br)cc2)C2C(=O)N(C)C(=O)C21 (centres unmarked) [7l]
Inhibition of GLI-dependent reporter gene expression (in words) (Shh-LIGHT2 cells): did not suppress | Expression of the Hh target genes Ptch1 and Gli1 (in words) [1]: only slightly reduced | solubility kinetic [2]: 47.3 µM (≈ 27.2 µg/mL)

COC(=O)C1(CCC(=O)c2ccc(F)cc2)N=C(c2ccc(Br)cc2)C2C(=O)N(C)C(=O)C21 (centres unmarked) [7d]
Rate constant of RHOGDI1-mediated RAC1 displacement from liposomes in presence of compound (RHOGDI1-RAC1 interaction; 25 µM RHOGDI1, mono-exponential fitting of RU decays): 0.032 s⁻¹ | Effect on kinetics of geranylgeranylated RAC1 extraction by RHOGDI1 (in words) (RHOGDI1-RAC1 interaction): did not

COC(=O)C1(C(CC(=O)c2ccccc2)c2ccccc2)N=C(c2ccc(Br)cc2)C2C(=O)N(C)C(=O)C21 (centres unmarked) [7a]
pIC50 (Shh-LIGHT2 cells; Shh Light2, Figure 2a, mean of three independent experiments): 5.80 | Inhibition of GLI-dependent reporter gene expression (in words) (Shh-LIGHT2 cells): did not inhibit | Expression of the Hh target genes Ptch1 and Gli1 (remaining) ([1]; 5 μM, purmorphamine-treated cells = 100 %): approx. 50% | Effect on kinetics of geranylgeranylated RAC1 extraction by RHOGDI1 (in words) (RHOGDI1-RAC1 interaction): slowed down the kinetics | Solubility (in words) [2]: limited solubility | solubility kinetic [2]: 5.7 µM (≈ 3.27 µg/mL)
